Assays:
Format in all cases: cell-based, human
NANOG = experiment: Real-time qPCR, NANOG stemness gene expression; conditions: TNF-α/IFN-γ-exposed MSCs (TI) treated with compound; FIG. 1B
Description: (§1) Human placenta-derived mesenchymal stem cells (hPD-MSCs) were harvested from inside the placental chorion, and the harvested cells were cultured in an alpha-Minimum Essential medium (Cytiva, Marlborough, MA, USA) supplemented with 10% fetal bovine serum (ThermoFisher, Waltham, MA, USA), 1% penicillin/streptomycin (ThermoFisher, Waltham, MA, USA), 25 ng/mL human fibroblast growth factor-4 (Peprotech, Rocky Hill, NJ, USA) and 1 μg/mL heparin (Merck, San Francisco, CA, USA). A total of 1×10^5 hPD-MSCs were seeded in a cell culture dish (90×20 mm) (SPL, Pocheon, Korea) and cultured at 37° C. in an incubator containing 5% CO2. The cells were subcultured every 4 days until reaching 70 to 80% confluency. Expanded cells were obtained at passage 12 or 13. During subculture, viable cells were stained with Trypan blue (Merck) and the number of cells was manually counted.
(§2) In a passage for sample extraction, hPD-MSCs were cultured for 24 hours in a medium with or without an example compound (5-[(1,1-dioxido-4-thiomorpholinyl)methyl]-2-phenyl-N-(tetrahydro-2H-pyran-4-yl)-1H-indole-7-amine) while including 2.5 ng/mL TNF-α (Peprotech) and 25 ng/mL IFN-γ (Peprotech).
(§3) In the present experiment, the expression levels of stem cell differentiation-related genes and cell cycle-related genes were analyzed by qPCR. […]

p16 = experiment: Real-time qPCR, p16 cell cycle-related gene expression; conditions: TNF-α/IFN-γ-exposed MSCs treated with compound; FIG. 1C
Description: as §1, §2, §3

[1] = test system: TNF-α/IFN-γ-exposed hPD-MSCs; experiment: Mitochondrial membrane potential and distribution, MitoSpy confocal microscopy; conditions: TNF-α/IFN-γ-exposed MSCs treated with compound; FIG. 2A
Description: hPD-MSCs were stained with MitoSpy Orange CMTMRos (BioLegend, SanDiego, CA, USA) to observe mitochondrial membrane potential, and stained with […]. After 72 hours with or without […] treatment, hPD-MSCs were passaged on a gelatin-coated cover glass (Sigma, St. Louis, Missouri, USA) in 12-well plates (SPL) and stained 24 hours later. The hPD-MSCs were cultured in α-MEM containing 250 nM MitoSpy Green FM and 250 nM MitoSpy Orange CMTMRo for 30 minutes. Stained hPD-MSCs were fixed with 4% paraformaldehyde (Alfa Aesar, Ward Hill, Massachusetts, USA) for 5 minutes, and then stained with 1 μg/mL Hoechst 33342® (ThermoFisher) at room temperature for 5 minutes. Finally, the cover glass was mounted on a slide glass using a mounting solution (VectaShield, ThermoFisher) and samples were imaged with a confocal microscope (LSM880; Zeiss, Oberkochen, Germany). The fluorescence intensities of confocal images were quantified using ZEN 2018 Black and Blue edition software (Zeiss). […]

mitofusion 1 (MFN1) = experiment: Real-time qPCR, mitochondrial dynamics gene MFN1; conditions: vs TNF-α/IFN-γ-exposed MSC control (TI); FIG. 2B
Description: Real-time qPCR was performed using an Easy-Spin Total RNA Kit (iNtRON, Seongnam, Korea) to extract total RNA from hPD-MSCs and RNA concentration was adjusted to 100 ng/μL using a microplate spectrophotometer (Epoch™ Microplate Spectrophotometer, BioTek, Winooski, VT, USA), and the extracted RNA was reverse transcribed into cDNA using RT PreMix (dT20) (Bioneer, Seoul, Korea) using a SimpliAmp Thermal Cycler (Life Technologies, Carlsbad, CA, USA). Real-time qPCR was performed using a real-time PCR machine (CFX Connect, Bio-Rad, Hercules, CA, USA), SYBR Green Supermix (Bio-Rad) and the relevant primers, and all experiments were performed in triplicate for statistical analysis.
To investigate mitochondrial dynamics, real-time qPCR was performed to analyze the expression of dynamin-related protein 1 (DRP1), which is a mitochondrial division-related gene, and mitofusion 1 (MFN1) and mitofusion 2 (MFN2), which are […] mitochondrial membrane fusion-related genes. As the real-time qPCR analysis method, the same method described in Experimental Example 1-2 above was used, and the results are shown in FIG. 2B.

AKT = experiment: Western blotting, AKT phosphorylation ratio (mTORC1 pathway); conditions: vs MSC control exposed to TNF-α/IFN-γ; FIG. 4D
Description: (§4) Further, the phosphorylation-induced activation ratios of AKT/mTOR/S6K, which represents the mTORC1 pathway, was analyzed. mTORC1 activation is known to not only induce senescence-associated phenotypes in MSCs, but also impair quiescence and sternness. In the present experiment, the phosphorylation ratio was confirmed using western blotting analysis as described below.
(§5) Proteins were extracted with a Pro-Prep protein lysis buffer (iNtRON) and quantified by a protein quantitative analysis kit (BIOMAX, Seoul, Korea). Samples were then heated in 4× Laemmli sample buffer (Bio-Rad) containing 2-mercaptoethanol (Bio-Rad), and proteins were loaded onto an 8% sodium dodecyl sulfate polyacrylamide gel and electrophoresed at 60 V for 30 minutes, and then electrophoresed at 120 V for 1 hour. […]
(§6) Immunoreactive bands were detected using an enhanced chemiluminescence detection reagent (Clarity™ Western blot substrate, Bio-Rad) and images of the bands were obtained using ImageSaver Version 6 (ATTO, Tokyo, Japan). The intensity of each band was analyzed with CA4 analyzer software (ATTO), and each experiment was performed in triplicate under the same conditions. […]

S6K = experiment: Western blotting, S6K phosphorylation ratio (mTORC1 pathway); conditions: vs MSC control exposed to TNF-α/IFN-γ; FIG. 4D
Description: as §4, §5, §6

mTOR = experiment: Western blotting, mTOR phosphorylation ratio (mTORC1 pathway); conditions: vs MSC control exposed to TNF-α/IFN-γ; FIG. 4D
Description: as §4, §5, §6

## O=S1(=O)CCN(Cc2cc(NC3CCOCC3)c3[nH]c(-c4ccccc4)cc3c2)CC1 [example compound, 5-[(1,1-dioxido-4-thiomorpholinyl)methyl]-2-phenyl-N-(tetrahydro-2H-pyran-4-yl)-1H-indole-7-amine]
NANOG
  NANOG expression (relative to untreated MSC control): significantly increased to a level similar to that of the untreated MSC control
p16
  p16 expression (relative to untreated MSC control): remarkably decreased
[1]
  mitochondrial membrane potential and distribution: restored to quiescence
Mitofusion 1 (MFN1)
  MFN1 expression level: slightly reduced
AKT
  reduction of AKT phosphorylation ratio (pAKT/AKT): about 25%
S6K
  reduction of S6K phosphorylation ratio (pS6K/S6K): ~40%
mTOR
  reduction of mTOR phosphorylation ratio (pmTOR/mTOR): ~30%

Source: patent US20240374646A1, “COMPOSITION FOR INHIBITING INFLAMMATION OR AGING OF STEM CELLS, AND METHOD FOR INHIBITING INFLAMMATION OR AGING BY USING SAME” (MITOIMMUNE THERAPEUTICS INC., priority 2021, published 2024)
